From patent EP4722219A1 (Gan & Lee Pharmaceuticals Co., Ltd., priority 2023, dated 2024)

Experiments:
Assay type in all cases: cell-based
SMARCA4 [1] = target: T1, SMARCA4 (Homo sapiens, UniProt P51532); assay: SMARCA4 degradation in SW1573 cells (Western blot); set-up: endogenous in cells; host or cells: SW1573; settings: 24 hours; for Dmax at 0.001 µM / Dmax at 0.08 µM: read-out: Degradation rate of SMARCA4 in SW1573 cells (%)
Protocol: SW1573 cells were seeded at 2x10^5Cells/well in a 6-well plate. 2 mL of EMEM medium supplemented with 10% FBS was added to each well and was incubated overnight to allow cell attachment. […] The cells were returned to the incubator and incubated for another 24 hours.
(§1) After 24 hours, cells were harvested, the medium was aspirated, and the cells were rinsed once with 1 mL/well PBS. The PBS was aspirated, and 40 µL/well of RIPA lysis buffer containing protease inhibitors was added. After lysis and centrifugation, total protein extracts were obtained, and protein concentration in the extracts was determined by BCA assay. Protein electrophoresis was performed by SDS-PAGE, followed by constant voltage electrophoresis at 100 V for 60 minutes and the protein was then transferred to a PVDF membrane. The PVDF membrane was blocked in 5% skim milk powder for 1 hour at room temperature. […] After washing the membrane, secondary antibodies were added and incubated at room temperature for 1 hour (protected from the light). After washing, the membrane was exposed using an Odyssey luminometer. Grayscale analysis of bands was performed using Image Studio software.
(§2) The degradation rate (%) of SMARCA2/4 by the PROTAC compounds of the present invention in HeLa cells and SW1573 cells is shown in Table 10. Table 10 Degradation rate of SMARCA2/4 by PROTAC compounds of the present invention in HeLa cells and SW1573 cells (%)

SMARCA2 [2] = target: T2, SMARCA2 (Homo sapiens, UniProt P51531); assay: SMARCA2 degradation in SW1573 cells (Western blot); set-up: endogenous in cells; host or cells: SW1573; settings: 24 hours
Protocol: (§3) Test Example 10 Degradation rate (%) of SMARCA2/4 by the PROTAC compounds of the present invention in HeLa cells and SW1573 cells
SW1573 cells were seeded at 2x10^5Cells/well in a 6-well plate. 2 mL of EMEM medium supplemented with 10% FBS was added to each well and was incubated overnight to allow cell attachment. The next day, 1 µL of 160 µM and 1 µL of 2 µM compound were added to the corresponding wells for treatment, resulting in final compound concentrations of 80 nM and 1 nM, respectively, and a final DMSO concentration of 0.05%. The cells were returned to the incubator and incubated for another 24 hours.
(§4) After 24 hours, cells were harvested, the medium was aspirated, and the cells were rinsed once with 1 mL/well PBS. The PBS was aspirated, and 40 µL/well of RIPA lysis buffer containing protease inhibitors was added. After lysis and centrifugation, total protein extracts were obtained, and protein concentration in the extracts was determined by BCA assay. Protein electrophoresis was performed by SDS-PAGE, followed by constant voltage electrophoresis at 100 V for 60 minutes and the protein was then transferred to a PVDF membrane. The PVDF membrane was blocked in 5% skim milk powder for 1 hour at room temperature. Primary antibodies (SMARCA2: CST#11966S, SMARCA4: CST#49360S, GAPDH: CST#5174S) were added and incubated overnight at 4°C. After washing the membrane, secondary antibodies were added and incubated at room temperature for 1 hour (protected from the light). After washing, the membrane was exposed using an Odyssey luminometer. Grayscale analysis of bands was performed using Image Studio software.
as §2

SMARCA2 [3] = target: T2, SMARCA2; assay: SMARCA2 degradation in HeLa cells (Western blot); set-up: endogenous in cells; settings: 4 hours
Protocol: as §3
HeLa cells were seeded at 1.2 x 10^5 cells/well in a 6-well plate. 2 mL of EMEM medium supplemented with 10% FBS was added to each well and the culture dish was incubated overnight to allow the cells to adhere. The next day, 1 µL of 160 µM and 1 µL of 2 µM compound were added to the corresponding wells, resulting in final compound concentrations of 80 nM and 1 nM, respectively, and a final DMSO concentration of 0.05%. The cells were returned to the incubator and incubated for another 4 hours.
as §4, with “After 4 hours, cells” for “After 24 hours, cells”, “harvested, the culture medium was” for “harvested, the medium was”
as §2

SMARCA4 [4] = target: T1, SMARCA4; assay: SMARCA4 degradation in HeLa cells (Western blot); set-up: endogenous in cells; settings: 4 hours, read-out: Degradation rate of SMARCA4 in HeLa cells (%); for Dmax at 0.001 µM: 1 nM; for Dmax at 0.08 µM: 80 nM
Protocol: HeLa cells were seeded at 1.2 x 10^5 cells/well in a 6-well plate. 2 mL of EMEM medium supplemented with 10% FBS was added to each well and the culture dish was incubated overnight to allow the cells to adhere. […] The cells were returned to the incubator and incubated for another 4 hours.
as §1, with “After 4 hours, cells” for “After 24 hours, cells”, “harvested, the culture medium was” for “harvested, the medium was”
as §2

T2 sequence (P51531 whole entry): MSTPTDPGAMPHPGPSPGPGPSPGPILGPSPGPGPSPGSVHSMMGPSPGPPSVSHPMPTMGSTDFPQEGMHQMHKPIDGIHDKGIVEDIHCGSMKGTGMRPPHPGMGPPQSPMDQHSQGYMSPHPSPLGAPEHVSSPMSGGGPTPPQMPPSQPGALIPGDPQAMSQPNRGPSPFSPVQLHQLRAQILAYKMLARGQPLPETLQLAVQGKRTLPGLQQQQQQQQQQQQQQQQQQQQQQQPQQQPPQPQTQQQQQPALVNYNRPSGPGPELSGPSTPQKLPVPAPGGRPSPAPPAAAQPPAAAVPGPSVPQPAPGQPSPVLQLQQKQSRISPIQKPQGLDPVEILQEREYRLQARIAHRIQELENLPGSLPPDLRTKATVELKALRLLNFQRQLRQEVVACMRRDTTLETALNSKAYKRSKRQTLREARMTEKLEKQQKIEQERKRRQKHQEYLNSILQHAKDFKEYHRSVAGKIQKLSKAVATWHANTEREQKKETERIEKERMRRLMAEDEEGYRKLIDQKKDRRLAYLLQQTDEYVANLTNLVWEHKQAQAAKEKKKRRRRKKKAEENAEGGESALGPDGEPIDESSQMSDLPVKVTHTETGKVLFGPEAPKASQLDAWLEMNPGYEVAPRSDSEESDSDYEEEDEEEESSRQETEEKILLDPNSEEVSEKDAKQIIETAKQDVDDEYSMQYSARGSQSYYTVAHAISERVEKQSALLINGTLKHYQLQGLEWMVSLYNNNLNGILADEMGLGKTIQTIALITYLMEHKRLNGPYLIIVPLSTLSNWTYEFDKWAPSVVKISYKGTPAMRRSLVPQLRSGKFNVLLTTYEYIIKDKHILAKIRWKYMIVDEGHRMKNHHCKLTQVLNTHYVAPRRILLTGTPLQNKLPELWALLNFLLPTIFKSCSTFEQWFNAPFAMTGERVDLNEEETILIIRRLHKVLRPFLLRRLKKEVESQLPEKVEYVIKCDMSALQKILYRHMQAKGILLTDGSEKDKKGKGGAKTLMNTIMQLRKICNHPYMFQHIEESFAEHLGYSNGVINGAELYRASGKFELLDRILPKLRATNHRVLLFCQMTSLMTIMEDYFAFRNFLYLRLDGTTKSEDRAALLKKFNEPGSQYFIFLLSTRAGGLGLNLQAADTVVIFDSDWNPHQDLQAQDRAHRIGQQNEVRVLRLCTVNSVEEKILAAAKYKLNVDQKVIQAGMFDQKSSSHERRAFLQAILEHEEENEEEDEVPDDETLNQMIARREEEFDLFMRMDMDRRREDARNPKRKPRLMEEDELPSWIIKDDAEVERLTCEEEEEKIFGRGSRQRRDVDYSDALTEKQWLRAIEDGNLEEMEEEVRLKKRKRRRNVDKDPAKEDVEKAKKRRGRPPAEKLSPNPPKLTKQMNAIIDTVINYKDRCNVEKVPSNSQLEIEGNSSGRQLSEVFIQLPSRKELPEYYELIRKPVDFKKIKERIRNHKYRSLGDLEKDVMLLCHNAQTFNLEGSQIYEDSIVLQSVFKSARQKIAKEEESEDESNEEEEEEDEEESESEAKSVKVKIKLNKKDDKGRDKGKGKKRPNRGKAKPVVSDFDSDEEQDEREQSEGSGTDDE
T1 sequence (P51532 whole entry): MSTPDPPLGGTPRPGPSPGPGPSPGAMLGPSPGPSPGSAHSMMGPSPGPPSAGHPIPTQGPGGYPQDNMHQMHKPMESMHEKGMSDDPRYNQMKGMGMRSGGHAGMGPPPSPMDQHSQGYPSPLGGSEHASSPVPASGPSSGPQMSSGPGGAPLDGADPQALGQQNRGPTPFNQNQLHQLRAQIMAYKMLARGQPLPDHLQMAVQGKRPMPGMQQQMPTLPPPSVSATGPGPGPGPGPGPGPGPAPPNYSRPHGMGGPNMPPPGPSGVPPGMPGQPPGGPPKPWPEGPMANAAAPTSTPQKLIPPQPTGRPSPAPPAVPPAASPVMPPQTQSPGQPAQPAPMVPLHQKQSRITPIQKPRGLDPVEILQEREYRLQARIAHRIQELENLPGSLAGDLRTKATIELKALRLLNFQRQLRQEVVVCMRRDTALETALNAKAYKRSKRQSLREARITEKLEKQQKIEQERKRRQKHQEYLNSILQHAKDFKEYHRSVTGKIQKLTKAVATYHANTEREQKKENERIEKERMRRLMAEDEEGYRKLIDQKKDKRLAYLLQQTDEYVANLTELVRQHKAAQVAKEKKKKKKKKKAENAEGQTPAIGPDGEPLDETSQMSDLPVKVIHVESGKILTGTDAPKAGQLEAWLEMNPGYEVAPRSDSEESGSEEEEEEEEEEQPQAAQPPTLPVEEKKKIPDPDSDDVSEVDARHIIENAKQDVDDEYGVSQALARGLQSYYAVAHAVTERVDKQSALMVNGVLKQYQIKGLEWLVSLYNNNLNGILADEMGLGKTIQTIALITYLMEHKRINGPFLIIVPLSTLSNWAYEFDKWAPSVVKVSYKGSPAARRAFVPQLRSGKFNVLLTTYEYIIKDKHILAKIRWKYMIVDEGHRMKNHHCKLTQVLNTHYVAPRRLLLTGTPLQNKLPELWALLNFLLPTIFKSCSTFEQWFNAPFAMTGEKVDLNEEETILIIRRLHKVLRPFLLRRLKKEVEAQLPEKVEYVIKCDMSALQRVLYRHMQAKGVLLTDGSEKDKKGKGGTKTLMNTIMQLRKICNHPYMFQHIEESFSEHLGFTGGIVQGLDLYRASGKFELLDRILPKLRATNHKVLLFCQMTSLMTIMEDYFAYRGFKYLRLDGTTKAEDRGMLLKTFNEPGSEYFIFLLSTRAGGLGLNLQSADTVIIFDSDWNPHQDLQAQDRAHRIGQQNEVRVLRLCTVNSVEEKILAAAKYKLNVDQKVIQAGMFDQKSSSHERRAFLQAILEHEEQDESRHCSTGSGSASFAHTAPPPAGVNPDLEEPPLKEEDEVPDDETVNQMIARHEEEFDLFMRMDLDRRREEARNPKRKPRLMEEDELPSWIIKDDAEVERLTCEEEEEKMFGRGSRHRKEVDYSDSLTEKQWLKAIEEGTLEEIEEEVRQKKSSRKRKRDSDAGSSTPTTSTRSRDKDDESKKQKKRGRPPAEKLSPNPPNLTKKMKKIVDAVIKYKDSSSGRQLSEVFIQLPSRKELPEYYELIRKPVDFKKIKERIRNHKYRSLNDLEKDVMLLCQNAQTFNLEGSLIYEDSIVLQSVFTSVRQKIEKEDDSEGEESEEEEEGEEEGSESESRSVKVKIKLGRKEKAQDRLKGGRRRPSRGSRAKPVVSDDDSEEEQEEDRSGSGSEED

For `Nc1nnc(-c2ccccc2O)cc1C#CC1CCC2(CC1)CC(N1CCN3c4ccc(C(=O)N[C@H]5CCC(=O)NC5=O)c(F)c4OC[C@H]3C1)C2` (some centres unmarked) [SM-P-22], the Dmax at 0.001 µM (SMARCA4 [1]; 1 nM) was 14%, the Dmax at 0.08 µM (SMARCA4 [1]; 80 nM) was 4% and the “Degradation rate of SMARCA2 in SW1573 cells (%)” value (SMARCA2 [2]; 1 nM) was -9%. For the same compound, the “Degradation rate of SMARCA2 in SW1573 cells (%)” value (SMARCA2 [2]; 80 nM) was 28%.
In the case of `Nc1nnc(-c2ccccc2O)cc1C#CC1CCC2(CC1)CC(N1CCC3(CCc4cc(F)c(C(=O)N[C@H]5CCC(=O)NC5=O)cc4O3)CC1)C2` (some centres unmarked) [SM-P-12], the “Degradation rate of SMARCA2 in HeLa cells (%)” value (SMARCA2 [3]; 1 nM) is reported as 6%, the “Degradation rate of SMARCA2 in HeLa cells (%)” value (SMARCA2 [3]; 80 nM) is reported as 14% and the Dmax at 0.001 µM (SMARCA4 [4]) is reported as 17%. The Dmax at 0.08 µM (SMARCA4 [4]) was 24%, the Dmax at 0.001 µM (SMARCA4 [1]; 1 nM) was 28% and the Dmax at 0.08 µM (SMARCA4 [1]; 80 nM) was 5%. The “Degradation rate of SMARCA2 in SW1573 cells (%)” value (SMARCA2 [2]; 1 nM) was 32% and the “Degradation rate of SMARCA2 in SW1573 cells (%)” value (SMARCA2 [2]; 80 nM) was 32%.
`Cn1c(=O)n(C2CCC(=O)NC2=O)c2cc3c(cc21)OC1(CC3)CCN(C2CC3(CCC(C#Cc4cc(-c5ccccc5O)nnc4N)CC3)C2)CC1` (centres unmarked) [SM-P-1, 3-(1'-(7-((3-amino-6-(2-hydroxyphenyl)pyridazin-4-yl)ethynyl)spiro[3.5]nonan-2-yl)-3-methyl-2-oxo-2,3,7,8-tetrahydro-1H-spiro[chromeno[6,7-d]imidazole-6,4'-piperidin]-1-yl)piperidine-2,6-dione] was tested, and the “Degradation rate of SMARCA2 in HeLa cells (%)” value (SMARCA2 [3]; 1 nM) was 90%, the “Degradation rate of SMARCA2 in HeLa cells (%)” value (SMARCA2 [3]; 80 nM) was 100% and the Dmax at 0.001 µM (SMARCA4 [4]) was 85%. The Dmax at 0.08 µM (SMARCA4 [4]) was 98%, the Dmax at 0.001 µM (SMARCA4 [1]; 1 nM) was 43% and the Dmax at 0.08 µM (SMARCA4 [1]; 80 nM) was 97%. The “Degradation rate of SMARCA2 in SW1573 cells (%)” value (SMARCA2 [2]; 1 nM) was 72% and the “Degradation rate of SMARCA2 in SW1573 cells (%)” value (SMARCA2 [2]; 80 nM) was 96%.
`Nc1nnc(-c2ccccc2O)cc1C#CC1CCC2(CC1)CC(N1CCC3(CC1)CCC1(CC3)COc3c1ccc1c3CN(C3CCC(=O)NC3=O)C1=O)C2` (centres unmarked) [SM-P-2] was tested, and the “Degradation rate of SMARCA2 in HeLa cells (%)” value (SMARCA2 [3]; 1 nM) was 95%, the “Degradation rate of SMARCA2 in HeLa cells (%)” value (SMARCA2 [3]; 80 nM) was 98% and the Dmax at 0.001 µM (SMARCA4 [4]) was 92%. The Dmax at 0.08 µM (SMARCA4 [4]) was 99%, the Dmax at 0.001 µM (SMARCA4 [1]; 1 nM) was 94% and the Dmax at 0.08 µM (SMARCA4 [1]; 80 nM) was 100%. The “Degradation rate of SMARCA2 in SW1573 cells (%)” value (SMARCA2 [2]; 1 nM) was 98% and the “Degradation rate of SMARCA2 in SW1573 cells (%)” value (SMARCA2 [2]; 80 nM) was 100%.
With `CN(C(=O)c1ccc2c(c1)OC[C@H]1CN(C3CC4(CCC(C#Cc5cc(-c6ccccc6O)nnc5N)CC4)C3)CCN21)[C@H]1CCC(=O)NC1=O` (some centres unmarked) [SM-P-18] the Dmax at 0.001 µM (SMARCA4 [1]; 1 nM) was -32%, the Dmax at 0.08 µM (SMARCA4 [1]; 80 nM) was -34% and the “Degradation rate of SMARCA2 in SW1573 cells (%)” value (SMARCA2 [2]; 1 nM) was 16%. The “Degradation rate of SMARCA2 in SW1573 cells (%)” value (SMARCA2 [2]; 80 nM) was 25%.
For `Cc1ncsc1-c1ccc([C@H](C)NC(=O)[C@@H]2C[C@@H](O)CN2C(=O)[C@@H](NC(=O)[C@H]2CC[C@H](CN3CC4(CCC(n5cc(-c6cc(-c7ccccc7O)nnc6N)cn5)CC4)C3)CC2)C(C)(C)C)cc1` [SMD-3040, (2S,4R)-1-((S)-2-((1R,4S)-4-((7-(4-(3-amino-6-(2-hydroxyphenyl)pyridazin-4-yl)-1H-pyrazol-1-yl)-2-azaspiro[3.5]nonan-2-yl)methyl)cyclohexane-1-carboxamido)-3,3-dimethylbutanoyl)-4-hydroxy-N-((S)-1-(4-(4-methylthiazol-5-yl)phenyl)ethyl)pyrrolidine-2-carboxamide, reference compound], the “Degradation rate of SMARCA4 in SW1573 cells (%)” value (SMARCA4 [1]; 1 nM) was 21%, the “Degradation rate of SMARCA4 in SW1573 cells (%)” value (SMARCA4 [1]; 80 nM) was 86% and the “Degradation rate of SMARCA2 in SW1573 cells (%)” value (SMARCA2 [2]; 1 nM) was 89%. For the same compound, the “Degradation rate of SMARCA2 in SW1573 cells (%)” value (SMARCA2 [2]; 80 nM) was 99%.
In the case of `COc1cc2c(cc1C(=O)N[C@H]1CCC(=O)NC1=O)C1(CCN(C3CC4(CCC(C#Cc5cc(-c6ccccc6O)nnc5N)CC4)C3)CC1)CO2` (stereo partly drawn) [SM-P-14, (S)-1'-(7-((3-amino-6-(2-hydroxyphenyl)pyridazin-4-yl)ethynyl)spiro[3.5]nonan-2-yl)-N-(2,6-dioxopiperidin-3-yl)-6-methoxy-2H-spiro[benzofuran-3,4'-piperidin]-5-carboxamide], the “Degradation rate of SMARCA2 in HeLa cells (%)” value (SMARCA2 [3]; 1 nM) is reported as -7%, the “Degradation rate of SMARCA2 in HeLa cells (%)” value (SMARCA2 [3]; 80 nM) is reported as -3% and the “Degradation rate of SMARCA2 in SW1573 cells (%)” value (SMARCA2 [2]; 1 nM) is reported as 22%. For the same compound, the “Degradation rate of SMARCA2 in SW1573 cells (%)” value (SMARCA2 [2]; 80 nM) was 14%.
With `Nc1nnc(-c2ccccc2O)cc1C#CC1CCC2(CC1)CC(N1CCC3(CC1)COc1cc(C(=O)N[C@H]4CCC(=O)NC4=O)c(F)cc13)C2` (some centres unmarked) [SM-P-8] the “Degradation rate of SMARCA2 in HeLa cells (%)” value (SMARCA2 [3]; 1 nM) was 28%, the “Degradation rate of SMARCA2 in HeLa cells (%)” value (SMARCA2 [3]; 80 nM) was 64% and the “Degradation rate of SMARCA2 in SW1573 cells (%)” value (SMARCA2 [2]; 1 nM) was 9%. For the same compound, the “Degradation rate of SMARCA2 in SW1573 cells (%)” value (SMARCA2 [2]; 80 nM) was 61%.
`Nc1nnc(-c2ccccc2O)cc1C#CC1CCC2(CC1)CC(N1CCN3c4cc(F)c(C(=O)N[C@H]5CCC(=O)NC5=O)cc4OC[C@H]3C1)C2` (stereo partly drawn) [SM-P-6, (R)-3-(7-((3-amino-6-(2-hydroxyphenyl)pyridazin-4-yl)ethynyl)spiro[3.5]nonan-2-yl)-n-((S)-2,6-dioxopiperidin-3-yl)-9-fluoro-1,2,3,4,4a,5-hexahydrobenzo[b]pyrazi no[1,2-d][1,4]oxazine-8-carboxamide] was tested, and the “Degradation rate of SMARCA4 in SW1573 cells (%)” value (SMARCA4 [1]; 1 nM) was -30%, the “Degradation rate of SMARCA4 in SW1573 cells (%)” value (SMARCA4 [1]; 80 nM) was -41% and the “Degradation rate of SMARCA2 in SW1573 cells (%)” value (SMARCA2 [2]; 1 nM) was 20%. For the same compound, the “Degradation rate of SMARCA2 in SW1573 cells (%)” value (SMARCA2 [2]; 80 nM) was 34%.
For `Nc1nnc(-c2ccccc2O)cc1C#CC1CCC2(CC1)CC(N1CCC3(CC1)COc1cc(NC4CCC(=O)NC4=O)ccc1C3)C2` (centres unmarked) [SM-P-23, 3-((1'-(7-((3-amino-6-(2-hydroxyphenyl)pyridazin-4-yl)ethynyl)spiro[3.5]nonan-2-yl)spiro[chromane-3,4'-piperidin]-7-yl)amino)piperidine-2,6-dione], the Dmax at 0.001 µM (SMARCA4 [1]; 1 nM) was -14%, the Dmax at 0.08 µM (SMARCA4 [1]; 80 nM) was 93% and the “Degradation rate of SMARCA2 in SW1573 cells (%)” value (SMARCA2 [2]; 1 nM) was 38%. The “Degradation rate of SMARCA2 in SW1573 cells (%)” value (SMARCA2 [2]; 80 nM) was 95%.
In the case of `Nc1nnc(-c2ccccc2O)cc1C#CC1CCC2(CC1)CC(N1CCN3c4cc(NC5CCC(=O)NC5=O)ccc4OCC[C@H]3C1)C2` (some centres unmarked) [SM-P-17], the Dmax at 0.001 µM (SMARCA4 [1]; 1 nM) is reported as -18%, the Dmax at 0.08 µM (SMARCA4 [1]; 80 nM) is reported as 12% and the “Degradation rate of SMARCA2 in SW1573 cells (%)” value (SMARCA2 [2]; 1 nM) is reported as 12%. For the same compound, the “Degradation rate of SMARCA2 in SW1573 cells (%)” value (SMARCA2 [2]; 80 nM) was 72%.
